Reference: US10358436B2, “Kinase inhibitors and method of treating cancer” (University Health Network, priority 2010, dated 2019)

Key:
Experiment in all cases: Kinase selectivity assay (CEREP HTRF panel)
Assay type in all cases: biochemical
[1] = target: PKCgamma (Homo sapiens (Human), UniProt P05129)
[2] = target: EphB4 kinase (Homo sapiens (Human), UniProt P54760)
[3] = target: TRKA (Homo sapiens (Human), UniProt P04629)
[4] = target: ROCK2 (Homo sapiens (Human), UniProt O75116)
[5] = target: p38alpha kinase (Homo sapiens (Human), UniProt Q16539)
[6] = target: Akt1/PKBalpha (Homo sapiens (Human), UniProt P31749)
[7] = target: Src kinase (Homo sapiens (Human), UniProt P12931)
[8] = target: p38delta kinase (Homo sapiens (Human), UniProt O15264)
[9] = target: PKCbeta 2 (Homo sapiens (Human), UniProt P05771)
[10] = target: PKCbeta 1 (Homo sapiens (Human), UniProt P05771)
[11] = target: MEK1/MAP2K1 (Homo sapiens (Human), UniProt Q02750)
Sequence of MEK1/MAP2K1 (Q02750 whole entry): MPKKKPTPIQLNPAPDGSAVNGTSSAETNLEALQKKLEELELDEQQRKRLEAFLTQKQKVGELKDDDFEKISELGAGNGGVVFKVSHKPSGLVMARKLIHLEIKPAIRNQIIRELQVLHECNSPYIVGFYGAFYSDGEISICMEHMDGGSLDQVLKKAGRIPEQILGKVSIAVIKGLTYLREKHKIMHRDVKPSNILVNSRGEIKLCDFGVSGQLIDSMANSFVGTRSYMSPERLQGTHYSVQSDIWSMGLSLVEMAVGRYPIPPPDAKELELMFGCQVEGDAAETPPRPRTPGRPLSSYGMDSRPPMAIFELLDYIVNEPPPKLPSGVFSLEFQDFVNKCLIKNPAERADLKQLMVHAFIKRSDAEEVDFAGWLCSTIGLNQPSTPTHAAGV

[12] = target: Lyn kinase (Homo sapiens (Human), UniProt P07948)
[13] = target: PDGFRbeta kinase (Homo sapiens (Human), UniProt P09619)
[14] = target: ERK2 (P42mapk) (Homo sapiens (Human), UniProt P28482); details: read-out: % Inhibition @ 10 uM, ERK (P42mapk)
[15] = target: MAPKAPK2 (Homo sapiens (Human), UniProt P49137)
[16] = target: Ret kinase (Homo sapiens (Human), UniProt P07949)
[17] = target: CSK (Homo sapiens (Human), UniProt P41240)
[18] = target: PKCalpha (Homo sapiens (Human), UniProt P17252)
[19] = target: RSK2 (Homo sapiens (Human), UniProt P51812)
[20] = target: CHK1 (Homo sapiens (Human), UniProt O14757)
[21] = target: IGF1R kinase (Homo sapiens (Human), UniProt P08069)
[22] = target: FLT-1 kinase (VEGFR1) (Homo sapiens (Human), UniProt P17948)
[23] = target: Lck (Homo sapiens (Human), UniProt P06239)
[24] = target: IRK (InsR) (Homo sapiens (Human), UniProt P06213)
[25] = target: CaMK2alpha (Homo sapiens (Human), UniProt Q9UQM7)
[26] = target: CaMK4 (Homo sapiens (Human), UniProt Q16566)
[27] = target: JNK 2 (Homo sapiens (Human), UniProt P45984)
[28] = target: KDR kinase (VEGFR2) (Homo sapiens (Human), UniProt P35968)
Experimental: (§1) The assays were performed using standard HTRF assay methods as documented by CEREP against the human orthologues of Ab1 kinase, Akt1/PKBa, AMPKa, BMX kinase (Etk), Brk, CaMK2a, CaMK4, CDC2/CDK1 (cycB), CHK1, CHK2, c-Met kinase, CSK, EphB4 kinase, ERK1, ERK2 (P42mapk), FGFR2 kinase, FGFR4 kinase, FLT-1 kinase (VEGFR1), FLT-3 kinase, Fyn kinase, IGF1R kinase, IRK (InsR), JNK 2, KDR kinase (VEGFR2), Lck kinase, Lyn kinase, MAPKAPK2, MEK1/MAP2K1, p38a kinase, p38d kinase, p38 g kinase, PDGFRb kinase, PDK1, PKA, PKCa, PKCb1, PKCb2, PKCg, Ret kinase, ROCK2, RSK2, Src kinase, Syk, and TRKA (Table 3).

[29] = target: CHK2 (Homo sapiens (Human), UniProt O96017)
[30] = target: Brk (Homo sapiens (Human), UniProt Q13882)
[31] = target: ERK1 (Homo sapiens (Human), UniProt P27361)
[32] = target: FLT3 (Homo sapiens (Human), UniProt P36888)
Sequence of FLT3 (P36888 27-993): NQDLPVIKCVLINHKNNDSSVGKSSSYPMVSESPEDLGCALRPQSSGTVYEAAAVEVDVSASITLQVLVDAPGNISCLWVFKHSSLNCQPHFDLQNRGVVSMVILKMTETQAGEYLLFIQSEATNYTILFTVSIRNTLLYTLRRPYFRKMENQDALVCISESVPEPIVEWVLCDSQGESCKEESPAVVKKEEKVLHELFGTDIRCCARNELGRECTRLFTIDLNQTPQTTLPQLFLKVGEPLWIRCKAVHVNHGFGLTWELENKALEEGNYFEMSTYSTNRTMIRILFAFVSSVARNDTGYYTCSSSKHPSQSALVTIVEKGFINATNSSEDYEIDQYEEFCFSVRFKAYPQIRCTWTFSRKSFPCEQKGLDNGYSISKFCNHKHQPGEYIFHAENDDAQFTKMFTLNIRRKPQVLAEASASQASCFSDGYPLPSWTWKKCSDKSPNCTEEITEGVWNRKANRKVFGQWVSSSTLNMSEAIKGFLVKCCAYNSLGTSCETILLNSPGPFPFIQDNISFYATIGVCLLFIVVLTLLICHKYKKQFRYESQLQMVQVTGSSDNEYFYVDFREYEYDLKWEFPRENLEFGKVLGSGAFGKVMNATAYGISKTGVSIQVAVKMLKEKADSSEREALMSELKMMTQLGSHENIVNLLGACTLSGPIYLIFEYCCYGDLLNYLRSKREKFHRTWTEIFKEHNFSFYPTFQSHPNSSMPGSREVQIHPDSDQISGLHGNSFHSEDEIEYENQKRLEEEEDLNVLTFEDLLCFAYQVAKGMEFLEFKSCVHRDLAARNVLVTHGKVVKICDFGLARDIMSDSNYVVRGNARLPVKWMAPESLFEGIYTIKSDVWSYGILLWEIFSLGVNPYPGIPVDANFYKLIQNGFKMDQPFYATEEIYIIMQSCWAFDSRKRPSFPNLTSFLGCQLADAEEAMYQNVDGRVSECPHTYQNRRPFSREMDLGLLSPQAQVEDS
Experimental: as §1

[33] = target: PDK1 (Homo sapiens (Human), UniProt O15530)
Sequence of PDK1 (O15530 whole entry): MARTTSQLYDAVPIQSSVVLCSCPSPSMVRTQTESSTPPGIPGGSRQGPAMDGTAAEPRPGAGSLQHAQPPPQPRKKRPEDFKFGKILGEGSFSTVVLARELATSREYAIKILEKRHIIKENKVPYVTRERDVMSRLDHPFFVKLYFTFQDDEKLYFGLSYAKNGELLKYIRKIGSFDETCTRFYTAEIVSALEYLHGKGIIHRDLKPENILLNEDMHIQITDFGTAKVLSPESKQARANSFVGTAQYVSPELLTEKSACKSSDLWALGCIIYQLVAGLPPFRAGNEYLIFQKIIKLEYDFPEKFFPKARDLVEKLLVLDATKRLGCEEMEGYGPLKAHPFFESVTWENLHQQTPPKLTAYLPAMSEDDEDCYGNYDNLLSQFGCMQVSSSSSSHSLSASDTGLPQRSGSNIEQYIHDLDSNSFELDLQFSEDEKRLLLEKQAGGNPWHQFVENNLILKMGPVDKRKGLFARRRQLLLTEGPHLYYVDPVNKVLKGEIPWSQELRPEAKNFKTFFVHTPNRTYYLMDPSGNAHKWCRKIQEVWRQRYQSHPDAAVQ

[34] = target: Abl (Homo sapiens (Human), UniProt P00519)
[35] = target: FGFR4 kinase (Homo sapiens (Human), UniProt P22455)
[36] = target: Fyn kinase (Homo sapiens (Human), UniProt P06241)
Sequence of Fyn kinase (P06241 whole entry): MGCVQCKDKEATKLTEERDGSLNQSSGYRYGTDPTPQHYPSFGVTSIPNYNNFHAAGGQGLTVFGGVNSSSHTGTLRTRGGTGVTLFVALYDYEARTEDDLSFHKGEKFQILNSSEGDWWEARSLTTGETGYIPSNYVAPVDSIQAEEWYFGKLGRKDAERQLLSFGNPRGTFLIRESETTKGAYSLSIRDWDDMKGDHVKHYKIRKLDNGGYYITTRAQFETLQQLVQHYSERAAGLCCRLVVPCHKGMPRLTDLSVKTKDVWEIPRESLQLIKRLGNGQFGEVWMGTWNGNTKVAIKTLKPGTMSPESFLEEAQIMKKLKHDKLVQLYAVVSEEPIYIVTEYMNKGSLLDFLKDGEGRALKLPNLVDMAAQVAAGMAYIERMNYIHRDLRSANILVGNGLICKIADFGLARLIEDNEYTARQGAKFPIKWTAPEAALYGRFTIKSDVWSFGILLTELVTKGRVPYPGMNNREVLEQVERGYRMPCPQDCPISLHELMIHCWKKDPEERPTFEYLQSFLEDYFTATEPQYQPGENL

[37] = target: p38gamma kinase (Homo sapiens (Human), UniProt P53778)
[38] = target: c-Met kinase (Homo sapiens (Human), UniProt P08581)
[39] = target: PKA (Homo sapiens (Human), UniProt P17612)
[40] = target: BMX kinase (Etk) (Homo sapiens (Human), UniProt P51813)

Sequence of EphB4 kinase (P54760 16-987): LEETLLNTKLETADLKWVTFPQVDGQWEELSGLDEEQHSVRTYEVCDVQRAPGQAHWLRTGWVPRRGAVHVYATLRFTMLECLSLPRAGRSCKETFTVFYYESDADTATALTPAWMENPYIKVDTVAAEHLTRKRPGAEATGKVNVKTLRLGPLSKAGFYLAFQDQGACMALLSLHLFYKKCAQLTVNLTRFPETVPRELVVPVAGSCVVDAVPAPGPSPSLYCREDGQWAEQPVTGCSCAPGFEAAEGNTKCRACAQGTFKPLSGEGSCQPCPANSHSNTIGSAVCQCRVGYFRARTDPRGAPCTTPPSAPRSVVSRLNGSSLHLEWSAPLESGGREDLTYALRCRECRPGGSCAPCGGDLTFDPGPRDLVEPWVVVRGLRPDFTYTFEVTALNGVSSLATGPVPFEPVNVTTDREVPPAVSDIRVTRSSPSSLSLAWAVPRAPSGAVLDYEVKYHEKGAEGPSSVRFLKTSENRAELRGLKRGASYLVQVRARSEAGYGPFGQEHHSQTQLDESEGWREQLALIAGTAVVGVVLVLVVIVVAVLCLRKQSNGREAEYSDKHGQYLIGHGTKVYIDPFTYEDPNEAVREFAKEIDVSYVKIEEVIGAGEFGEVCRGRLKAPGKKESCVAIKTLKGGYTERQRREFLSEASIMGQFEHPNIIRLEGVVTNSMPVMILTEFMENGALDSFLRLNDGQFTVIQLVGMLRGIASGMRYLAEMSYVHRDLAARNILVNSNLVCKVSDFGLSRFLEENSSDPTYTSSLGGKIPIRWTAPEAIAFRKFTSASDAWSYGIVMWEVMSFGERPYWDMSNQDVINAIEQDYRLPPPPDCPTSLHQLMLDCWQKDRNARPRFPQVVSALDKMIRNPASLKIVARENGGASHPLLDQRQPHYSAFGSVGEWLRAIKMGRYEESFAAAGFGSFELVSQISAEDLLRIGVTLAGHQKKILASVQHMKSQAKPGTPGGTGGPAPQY

With `O=C1Nc2ccccc2[C@]12C[C@H]2c1ccc2cn[nH]c2c1` (racemic) [Example A2, (1R*,2S*)-2-(1H-indazol-6-yl)spiro[cyclopropane-1,3′-indolin]-2′-one] the inhibition at 10 µM [1] was 7%, the inhibition at 10 µM [2] was 11% and the inhibition at 10 µM [3] was 54%. The inhibition at 10 µM [4] was 39%, the inhibition at 10 µM [5] was 6% and the inhibition at 10 µM [6] was -2%. For the same compound, the inhibition at 10 µM [7] was -10%, the inhibition at 10 µM [8] was -10% and the inhibition at 10 µM [9] was 4%. The inhibition at 10 µM [10] was 1%, the inhibition at 10 µM [11] was 4% and the inhibition at 10 µM [12] was 26%. The inhibition at 10 µM [13] was 4%, the inhibition at 10 µM [14] was 9% and the inhibition at 10 µM [15] was -4%. It also gave an inhibition at 10 µM [16] of 14%, an inhibition at 10 µM [17] of 9% and an inhibition at 10 µM [18] of -2%. The inhibition at 10 µM [19] was 17%, the inhibition at 10 µM [20] was -4% and the inhibition at 10 µM [21] was 20%. The inhibition at 10 µM [22] was 1%, the inhibition at 10 µM [23] was 17% and the inhibition at 10 µM [24] was 4%. It also gave an inhibition at 10 µM [25] of 41%, an inhibition at 10 µM [26] of 7% and an inhibition at 10 µM [27] of -2%. It also gave an inhibition at 10 µM [28] of 14%, an inhibition at 10 µM [29] of -10% and an inhibition at 10 µM [30] of 1%. The inhibition at 10 µM [31] was 4%, the inhibition at 10 µM [32] was 62% and the inhibition at 10 µM [33] was 4%. For the same compound, the inhibition at 10 µM [34] was 3%, the inhibition at 10 µM [35] was 0% and the inhibition at 10 µM [36] was 7%. The inhibition at 10 µM [37] was 4%, the inhibition at 10 µM [38] was 15% and the inhibition at 10 µM [39] was 0%. It also gave an inhibition at 10 µM [40] of -3%.
